According to patent US20090155352A1, “Microemulsion containing indolocarbazole compound and dosage forms containing the same” (Cephalon, Inc., priority 2007, published 2009):
In brackets after ≈: the same amount, converted by molar mass. One block for each compound: values may come before it.

Assays:
[1] = AIBN forced degradation screen of antioxidants in lestaurtinib microemulsions; assay type: physicochemical; conditions: AIBN screening; for antioxidant effect against oxidation of lestaurtinib microemulsion: first experiment, thirteen formulations
Protocol: Various antioxidants were evaluated for their effectiveness in relation to the composition of the invention. In an initial experiment, capsules containing a lestaurtinib composition prepared according to the invention were placed on accelerated stability conditions. Several impurities were determined (LC-MS) to be related to the oxidation of lestaurtinib. Subsequently, a forced degradation experiment was performed using the radical initiator azoisobutyronitrile (AIBN) adapted for use with lestaurtinib. This was based on the fact that AIBN radical initiates the autoxidation mechanism that the majority of active ingredients follow for oxidation.
Using AIBN as a screening tool, a series of microemulsions prepared in accordance with the invention were formulated using different antioxidants to identify suitable solutions for preventing degradation of the composition. The first experiment used thirteen formulations using several classes of antioxidants (i.e., oxygen scavengers, sacrificial antioxidants and H-atom donors) to determine which reaction pathway was critical for disrupting the oxidation process. From this first experiment, several antioxidants were identified as efficacious: ascorbic acid, vitamin E, BHA and BHT.
A second experiment was then performed based on the information obtained from the first experiment. The second experiment evaluated combinations of antioxidants from different classes, different isomers of the same antioxidants, and mixtures of water-soluble and oil-soluble antioxidants.

[2] = Water solubility of lestaurtinib; assay type: physicochemical; conditions: at 22° C.
[3] = Solubilized concentration of lestaurtinib in microemulsion formed with added water
Protocol: In one embodiment, microemulsions containing solubilized indolocarbazole compounds, e.g., lestaurtinib, can be prepared using the hydrophilic component and water in the excipient composition but without the presence of the surfactant, e.g., MYRJ®. In one example, a composition without surfactant was prepared as follows. Lestaurtinib 120 mg was weighed into a glass vial and 2 mL of molten PEG-1450 was added.

[4] = Maximum solubility of lestaurtinib in prior solid state solution / SEDDS formulations; conditions: vehicle 25% PEG 400, 25% PEG 1000, 50% MYRJ 52, no added water
Source text: This formulation was a self-emulsifying drug delivery system (SEDDS) comprised of a blend of polyoxyethylene glycols (PEGs) and MYRJ® 52 (polyoxyethylene 40 stearate surfactant available from Croda N.A., Parsippany, N.J.).

[5] = microemulsion with water addition

Compound: COc1ccc(O)c(C(C)(C)C)c1 [BHA, butylhydroxyanisole]
antioxidant effect against oxidation of lestaurtinib microemulsion [1]: efficacious

antioxidant effect against oxidation of lestaurtinib microemulsion [1]: efficacious
Compound: O=C1O[C@H]([C@@H](O)CO)C(O)=C1O [ascorbic acid]

Compound: C[C@]12O[C@H](C[C@]1(O)CO)n1c3ccccc3c3c4c(c5c6ccccc6n2c5c31)CNC4=O [lestaurtinib, [9S-(9α,10β,12α)]-2,3,9,10,11,12-hexahydro-10-hydroxy-10-(hydroxymethyl)-9-methyl-9,12-epoxy-1H-diindolo[1,2,3-fg:3′,2′,1′-kl]pyrrolo[3,4-i][1,6]benzodiazocin-1-one]
solubility [2]: 1.7 µg/mL (≈ 3.87 µM)
final concentration of lestaurtinib in clear solution ([3]; Example 13, PEG-1450 and water, without surfactant, by HPLC): 59.2 mg/mL
solubilized concentration achieved using the invention [3, 5]: 87 mg/g
solubilized concentration achieved using the invention (total composition weight) [3, 5]: about 9%
maximum solubility obtainable in SEDDS formulation [4]: about 29 mg/g

Compound: O=S([O-])S(=O)(=O)[O-].[K+].[K+] [potassium metabisulfite]
effect on impurity levels in final formulation ([1]; second experiment): decreased the overall impurity levels

antioxidant effect against oxidation of lestaurtinib microemulsion [1]: efficacious
Compound: vitamin E
